Patent US11925690B2, “Bifunctional molecules for targeting Rpn11” (AMPHISTA THERAPEUTICS LTD, priority 2018, dated 2024)

Columns and labels:
Format in all cases: cell-based
Brd4 (L) [1] = molecular target: T1, Brd4 (L) (Homo sapiens, UniProt O60885); test: Time-dependent BET degradation, immunoblot; parameters: Dmax: dose or concentration left out as unconfirmed; conditions: HEK293, Brd4 (L); for Dmax: 0-24 hrs; for Abs. T1/2 / T1/2: 1 μM; for Abs. T1/2: time to deplete 50% of the protein relative to DMSO; for T1/2: time to reach 50% of the Dmax
T1 construct: endogenous in cells; host or cells: HEK293 (CRL-1573), HeLa (CCL-2)
Experimental: (§1) Immunoblotting. Proteins were separated by SDS-PAGE on NuPage 4-12% Bis-Tris gels, followed by transfer to Amersham Protran 0.45 NC nitrocellulose membrane (GE Healthcare) using wet transfer. Membranes were blocked using 5% w/v milk in Tris-buffered saline (TBS) with 0.1% Tween-20. Blots were probed (overnight at 4 °C) using anti-Brd2 (Abcam ab139690, 1:2,000 dilution), anti-Brd3 (Abcam ab50818, 1:500 dilution), and anti-Brd4 (Abcam ab128874, 1:1,000 dilution) primary antibodies, as appropriate. The next day, blots were washed with TBST and incubated (1 h at Room temperature) with anti-Tubulin hFAB-rhodamine (BioRad, 12004166) primary antibody, and either anti-rabbit IRDye 800CW (Licor 1:1,000 dilution) or anti-mouse IRDye 800CW (Licor 1:1,000 dilution) secondary antibody. Blots were developed using a Bio-Rad ChemiDoc MP Imaging System, and band quantification was performed using Image Studio software (LiCor). Band intensities were normalized to the tubulin loading control and reported as % of the average 0.1% DMSO vehicle intensity. Degradation data was plotted and analysed using Prism (Graphpad, version 8).
(§2) HEK293 (0.5×10^6) cells were seeded in standard 6-well plates (2 mL medium) overnight before treatment with compounds at 1 μM concentration, with a final DMSO concentration of 0.1% v/v. After incubation for the desired time (0-24 hrs), cells were washed with DPBS (Gibco) and lysed using 85 μL RIPA buffer (Sigma-Aldrich) supplemented with complete Mini EDTA-free protease inhibitor cocktail (Roche) and benzonase. Lysates were clarified by centrifugation (20000 g, 10 min, 4° C.) and the total protein content of the supernatant was quantified using a Bradford colorimetric assay. Samples were prepared using equal amounts of total protein and LDS sample buffer (Invitrogen). Band intensities were normalized to the tubulin loading control and reported as % of the average 0.1% DMSO vehicle intensity. Degradation data was plotted and analysed using Prism (Graphpad, version 8).
(§3) MZ1 and 11JQ17 were used at 1 μM (4 h) for positive and negative controls, respectively. […]

Brd4 (S) [2] = molecular target: T2, Brd4 (S) (Homo sapiens, UniProt O60885); test: Time-dependent BET degradation, immunoblot; parameters: Dmax: dose or concentration left out as unconfirmed; conditions: HEK293, Brd4 (S); for Dmax: 0-24 hrs; for Abs. T1/2 / T1/2: 1 μM; for Abs. T1/2: time to deplete 50% of the protein relative to DMSO; for T1/2: time to reach 50% of the Dmax
T2 construct: endogenous in cells; host or cells: HEK293 (CRL-1573), HeLa (CCL-2)
Experimental: as §1, §2, §3

Brd2 [3] = molecular target: T3, Brd2 (Homo sapiens, UniProt P25440); test: Time-dependent BET degradation, immunoblot; conditions: HEK293, Brd2, 1 μM; for Dmax at 1 µM: 0-24 hrs; for Abs. T1/2: time to deplete 50% of the protein relative to DMSO; for T1/2: time to reach 50% of the Dmax
T3 sequence (P25440 whole entry): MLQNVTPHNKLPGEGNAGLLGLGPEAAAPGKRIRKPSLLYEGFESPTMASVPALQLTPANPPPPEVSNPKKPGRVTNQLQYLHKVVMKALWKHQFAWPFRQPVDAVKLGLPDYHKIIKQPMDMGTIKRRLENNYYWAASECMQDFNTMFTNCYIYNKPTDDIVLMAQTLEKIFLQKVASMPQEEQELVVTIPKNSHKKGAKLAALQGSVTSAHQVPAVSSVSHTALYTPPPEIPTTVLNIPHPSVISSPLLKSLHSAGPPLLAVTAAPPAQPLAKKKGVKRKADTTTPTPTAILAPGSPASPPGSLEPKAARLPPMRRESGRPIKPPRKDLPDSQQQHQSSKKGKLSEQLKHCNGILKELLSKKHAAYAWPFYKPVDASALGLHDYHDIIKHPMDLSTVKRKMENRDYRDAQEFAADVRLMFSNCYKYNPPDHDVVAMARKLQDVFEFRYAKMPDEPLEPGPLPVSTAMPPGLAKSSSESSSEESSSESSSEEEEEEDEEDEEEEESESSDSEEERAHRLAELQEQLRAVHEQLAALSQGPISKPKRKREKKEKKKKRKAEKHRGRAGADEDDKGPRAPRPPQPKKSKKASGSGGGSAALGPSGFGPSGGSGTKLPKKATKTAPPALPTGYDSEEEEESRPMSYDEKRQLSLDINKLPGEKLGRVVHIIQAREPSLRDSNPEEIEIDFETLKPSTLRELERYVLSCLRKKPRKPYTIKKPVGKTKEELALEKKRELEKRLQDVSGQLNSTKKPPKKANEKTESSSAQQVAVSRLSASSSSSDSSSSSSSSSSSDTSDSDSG
Experimental: as §1, §2, §3

Brd2, Brd3 and Brd4 = test: Immunoblot analysis of BET protein levels in HEK293 cells; conditions: for Brd2, Brd3 and Brd4 protein levels (FIG. 5): HEK293, 1 μM, various time points; for Brd2, Brd3 and Brd4 protein levels (FIG. 4): increasing concentrations
Experimental: Cell culture. HeLa (CCL-2) and HEK293 (CRL-1573) cells were purchased from ATCC and cultured in DMEM medium (Gibco) supplemented with 10% FBS, 100 μg/mL penicillin/streptomycin and L-glutamine. Cells were grown at 37° C. and 5% CO2 and were kept no longer than 30 passages. All cell lines were routinely tested for mycoplasma contamination using MycoAlert kit from Lonza.
HeLa (5×10^5) and HEK293 (1×10^6) cells were seeded in standard 6-well plates (2 mL medium) overnight before treatment with 1 μM compound with a final DMSO concentration of […]. After 4 h incubation time, cells were washed with DPBS (Gibco) and lysed using 85 μL RIPA buffer (Sigma-Aldrich) supplemented with cOmplete Mini EDTA-free protease inhibitor cocktail (Roche) and benzonase. Lysates were clarified by centrifugation (20000 g, 10 min, 4° C.) and the total protein content of the supernatant was quantified using a Bradford colorimetric assay. Samples were prepared using equal amounts of total protein and LDS sample buffer (Invitrogen).
as §1
as §2, with “HeLa (5×10^5) and HEK293” for “HEK293”, “(1×10^6)” for “(0.5×10^6)”, “the desired concentration (1 nM-10 μM),” for “1 μM concentration,”, “4 h treatment time,” for “incubation for the desired time (0-24 hrs),”, “cOmplete” for “complete”
HEK293 (0.5×10^6) cells were seeded in standard 6-well plates (2 mL medium) overnight before treatment with compounds at 1 μM concentration, with a final DMSO concentration of 0.1% v/v. […] Lysates were clarified by centrifugation (20000 g, 10 min, 4° C.) and the total protein content of the supernatant was quantified using a Bradford colorimetric assay. […] Degradation data was plotted and analysed using Prism (Graphpad, version 8).

Brd4 (L) [4] = molecular target: T1, Brd4 (L); test: Concentration-dependent BET degradation, immunoblot; conditions: 4 h, 1 nM-10 μM
Experimental: as §1
as §2, with “HeLa (5×10^5) and HEK293” for “HEK293”, “(1×10^6)” for “(0.5×10^6)”, “the desired concentration (1 nM-10 μM),” for “1 μM concentration,”, “4 h treatment time,” for “incubation for the desired time (0-24 hrs),”, “cOmplete” for “complete”
(§4) MZ1 and 11JQ17 were used at 1 μM for positive and negative controls, respectively. […] For the table, Dmax: +(Dmax≤25%); ++(26%≤Dmax≤50%); +++(51%≤Dmax≤70%); ++++(71%≤DC50: A (DC50≤50 nM); B (51 nM≤DC50≤500 nM); C (501 nM≤DC50).

Brd4 (S) [5] = molecular target: T2, Brd4 (S); test: as above; conditions: 4 h, 1 nM-10 μM
Experimental: as §1
as §2, with “HeLa (5×10^5) and HEK293” for “HEK293”, “(1×10^6)” for “(0.5×10^6)”, “the desired concentration (1 nM-10 μM),” for “1 μM concentration,”, “4 h treatment time,” for “incubation for the desired time (0-24 hrs),”, “cOmplete” for “complete”
as §4

Brd2 [6] = molecular target: T3, Brd2; test: as above; parameters: endogenous in cells; host or cells: HEK293 (CRL-1573), HeLa (CCL-2); conditions: 1 nM-10 μM
Experimental: as §1
as §2, with “HeLa (5×10^5) and HEK293” for “HEK293”, “(1×10^6)” for “(0.5×10^6)”, “the desired concentration (1 nM-10 μM),” for “1 μM concentration,”, “4 h treatment time,” for “incubation for the desired time (0-24 hrs),”, “cOmplete” for “complete”
as §4

Brd3 = Brd3 (Homo sapiens, UniProt Q15059); test: as above; parameters: endogenous in cells; host or cells: HEK293 (CRL-1573), HeLa (CCL-2); conditions: 1 nM-10 μM
Brd3, sequence (Q15059 whole entry): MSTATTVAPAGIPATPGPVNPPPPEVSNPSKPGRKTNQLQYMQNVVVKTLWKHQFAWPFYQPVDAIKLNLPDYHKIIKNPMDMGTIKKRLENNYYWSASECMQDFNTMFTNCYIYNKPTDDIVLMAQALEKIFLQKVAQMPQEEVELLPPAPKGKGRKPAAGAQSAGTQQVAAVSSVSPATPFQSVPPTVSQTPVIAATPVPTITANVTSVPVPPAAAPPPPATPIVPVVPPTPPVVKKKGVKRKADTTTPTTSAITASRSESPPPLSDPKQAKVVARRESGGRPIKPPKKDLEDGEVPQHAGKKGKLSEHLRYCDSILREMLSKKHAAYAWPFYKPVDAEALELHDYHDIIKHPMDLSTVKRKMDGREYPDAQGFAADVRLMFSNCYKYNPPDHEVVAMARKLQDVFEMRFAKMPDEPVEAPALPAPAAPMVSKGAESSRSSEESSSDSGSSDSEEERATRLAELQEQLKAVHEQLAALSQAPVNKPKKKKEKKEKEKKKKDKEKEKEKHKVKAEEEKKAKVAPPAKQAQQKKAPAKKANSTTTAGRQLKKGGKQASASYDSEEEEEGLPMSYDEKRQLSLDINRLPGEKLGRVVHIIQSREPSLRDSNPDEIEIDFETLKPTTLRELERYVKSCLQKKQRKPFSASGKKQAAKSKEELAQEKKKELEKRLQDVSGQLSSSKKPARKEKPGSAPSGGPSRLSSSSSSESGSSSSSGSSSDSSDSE
Experimental: as §1
as §2, with “HeLa (5×10^5) and HEK293” for “HEK293”, “(1×10^6)” for “(0.5×10^6)”, “the desired concentration (1 nM-10 μM),” for “1 μM concentration,”, “4 h treatment time,” for “incubation for the desired time (0-24 hrs),”, “cOmplete” for “complete”
as §4

Row | Dmax (Brd4 (L) [1]) | Abs. T1/2 (Brd4 (L) [1]) | T1/2 (Brd4 (L) [1]) | Dmax (Brd4 (S) [2]) | Abs. T1/2 (Brd4 (S) [2]) | T1/2 (Brd4 (S) [2]) | Dmax at 1 µM (Brd2 [3]) | Abs. T1/2 (Brd2 [3]) | T1/2 (Brd2 [3]) | DC50 (Brd4 (L) [4]; HEK293, Brd4 (L)) | Dmax (Brd4 (L) [4]; HEK293, Brd4 (L)) | DC50 (Brd4 (L) [4]; HeLa) | Dmax (Brd4 (L) [4]; HeLa) | DC50 (Brd4 (S) [5]; HEK293, Brd4 (S)) | Dmax (Brd4 (S) [5]; HEK293, Brd4 (S)) | DC50 (Brd4 (S) [5]; HeLa) | Dmax (Brd4 (S) [5]; HeLa) | DC50 (Brd2 [6]; HEK293, Brd2, 4 h) | Dmax (Brd2 [6]; HEK293, Brd2, 4 h) | DC50 (Brd2 [6]; HeLa, Brd2, 4 h) | Structure (SMILES) | other results
1 | 98% | 1.2 h | 1.2 h | 99% | 1.9 h | 114 min | 80% | 3.2 h | 1.8 h | 51 to 500 nM | ≥ 71% | ≤ 50 nM | ≥ 71% | 51 to 500 nM | ≥ 71% | ≤ 50 nM | ≥ 71% | 51 to 500 nM | ≥ 71% | ≥ 501 nM | Cc1sc2c(c1C)C(c1ccc(Cl)cc1)=N[C@@H](CC(=O)NCCCCNC(=O)c1cc(S)c3ncc(C(=O)NCCc4nccs4)cc3c1)c1nnc(C)n1-2 [Example 11JQ7] | Brd2, Brd3 and Brd4 protein levels (FIG. 1) (Brd2, Brd3 and Brd4; HEK293, 1 μM compound, 4 h, relative to 0.1% DMSO): approaching the potency of PROTAC MZ1; Dmax (Brd2 [6]; HeLa, Brd2, 4 h): ≥ 71%; DC50 (Brd3; HEK293, Brd3, 4 h): ≥ 501 nM; Dmax (Brd3; HEK293, Brd3, 4 h): ≥ 71%; DC50 (Brd3; HeLa, Brd3, 4 h): 51 to 500 nM; Dmax (Brd3; HeLa, Brd3, 4 h): ≥ 71%
2 | 90% | 1.1 h | 0.8 h | 90% | 1.2 h | 54 min | 50% | 5.7 h | 1.1 h | 51 to 500 nM | 51 to 70% | 51 to 500 nM | 51 to 70% | 51 to 500 nM | 51 to 70% | 51 to 500 nM | 51 to 70% | 51 to 500 nM | 26 to 50% | 51 to 500 nM | Cc1sc2c(c1C)C(c1ccc(Cl)cc1)=N[C@@H](CC(=O)NCCOCCNC(=O)c1cc(SC(=O)c3ccccc3)c3ncc(C(=O)NCCc4nccs4)cc3c1)c1nnc(C)n1-2 [Example 11JQ15] | Brd2, Brd3 and Brd4 protein levels (FIG. 5) (Brd2, Brd3 and Brd4): depletion of Brd2, Brd3 and Brd4 protein levels; Brd2, Brd3 and Brd4 protein levels (FIG. 4) (Brd2, Brd3 and Brd4; 4 h): depletion of Brd2, Brd3 and Brd4 protein levels; Dmax (Brd2 [6]; HeLa, Brd2, 4 h): 26 to 50%; DC50 (Brd3; HEK293, Brd3, 4 h): 51 to 500 nM; Dmax (Brd3; HEK293, Brd3, 4 h): 26 to 50%; DC50 (Brd3; HeLa, Brd3, 4 h): 51 to 500 nM; Dmax (Brd3; HeLa, Brd3, 4 h): 26 to 50%
3 | 98% | 1.0 h | 1.0 h | 95% | 0.6 h | 36 min | 75% | 2.7 h | 1.7 h | ≤ 50 nM | ≥ 71% | 51 to 500 nM | ≥ 71% | ≤ 50 nM | ≥ 71% | 51 to 500 nM | ≥ 71% | 51 to 500 nM | ≥ 71% | 51 to 500 nM | Cc1sc2c(c1C)C(c1ccc(Cl)cc1)=N[C@@H](CC(=O)NCCCCNC(=O)c1cc(SC(=O)c3ccccc3)c3ncc(C(=O)NCCc4nccs4)cc3c1)c1nnc(C)n1-2 [Example 11JQ16] | Brd2, Brd3 and Brd4 protein levels (FIG. 5) (Brd2, Brd3 and Brd4): depletion of Brd2, Brd3 and Brd4 protein levels; Brd2, Brd3 and Brd4 protein levels (FIG. 4) (Brd2, Brd3 and Brd4; 4 h): depletion of Brd2, Brd3 and Brd4 protein levels; Dmax (Brd2 [6]; HeLa, Brd2, 4 h): 51 to 70%; DC50 (Brd3; HEK293, Brd3, 4 h): ≤ 50 nM; Dmax (Brd3; HEK293, Brd3, 4 h): ≥ 71%; DC50 (Brd3; HeLa, Brd3, 4 h): ≥ 501 nM; Dmax (Brd3; HeLa, Brd3, 4 h): 51 to 70%
